Data taken from ChEMBL document CHEMBL5696442, “Discovery of type II inhibitors of TGFβ-activated kinase 1 (TAK1) and mitogen-activated protein kinase kinase kinase kinase 2 (MAP4K2)” (J Med Chem, 2015).
The source made the active and inactive calls. No cut-off for these calls is given here.

Tests used:
[1] = target: Tyrosine-protein kinase ITK/TSK (Homo sapiens) (UniProt Q08881); assay: Inhibition of ITK (unknown origin) at 10 uM by Ambit Kinomescan binding assay
[2] = target: Tyrosine-protein kinase JAK1 (Homo sapiens) (UniProt P23458); assay: Inhibition of JAK1 Domain 2 ACT labeling site harbouring IGDFGLTKAIETDKEYYTVK in human Huh-7 cells at 1 uM by KiNativ Profiling analysis relative to control; format: cell-based
[3] = target: TRAF2 and NCK-interacting protein kinase (Homo sapiens) (UniProt Q9UKE5); assay: Inhibition of TNIK (unknown origin) at 10 uM by Ambit Kinomescan binding assay relative to control; values are per cent of control
[4] = target: T1, Serine/threonine-protein kinase 3 (Homo sapiens) (UniProt Q13188); assay: Inhibition of MST2 K1 labeling site in human Huh-7 cells at 1 uM by KiNativ Profiling analysis relative to control; format: cell-based
T1 sequence (whole entry): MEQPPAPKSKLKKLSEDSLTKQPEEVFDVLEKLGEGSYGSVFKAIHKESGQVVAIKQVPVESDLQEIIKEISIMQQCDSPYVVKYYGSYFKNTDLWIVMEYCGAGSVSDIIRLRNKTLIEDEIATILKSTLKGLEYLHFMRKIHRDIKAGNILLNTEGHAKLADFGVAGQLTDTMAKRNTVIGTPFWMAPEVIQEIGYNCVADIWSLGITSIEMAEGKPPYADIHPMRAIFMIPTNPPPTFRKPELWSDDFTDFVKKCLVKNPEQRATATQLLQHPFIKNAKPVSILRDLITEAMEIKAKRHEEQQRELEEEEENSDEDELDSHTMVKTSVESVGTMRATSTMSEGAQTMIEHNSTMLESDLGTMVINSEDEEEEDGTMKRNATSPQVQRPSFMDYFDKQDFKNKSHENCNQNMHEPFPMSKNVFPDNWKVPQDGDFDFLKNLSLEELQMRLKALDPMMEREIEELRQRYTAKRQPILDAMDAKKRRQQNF

[5] = target: Serine/threonine-protein kinase N2 (Homo sapiens) (UniProt Q16513); assay: Inhibition of PKN2 Lys2 labeling site in human A-375 cells at 0.5 uM by KiNativ Profiling analysis relative to control; format: cell-based
[6] = target: T2, Mitogen-activated protein kinase kinase kinase 3 (Homo sapiens) (UniProt Q99759); assay: Inhibition of MAP3K3 Lys2 labeling site in human A-375 cells at 0.5 uM by KiNativ Profiling analysis relative to control; format: cell-based
T2 sequence (whole entry): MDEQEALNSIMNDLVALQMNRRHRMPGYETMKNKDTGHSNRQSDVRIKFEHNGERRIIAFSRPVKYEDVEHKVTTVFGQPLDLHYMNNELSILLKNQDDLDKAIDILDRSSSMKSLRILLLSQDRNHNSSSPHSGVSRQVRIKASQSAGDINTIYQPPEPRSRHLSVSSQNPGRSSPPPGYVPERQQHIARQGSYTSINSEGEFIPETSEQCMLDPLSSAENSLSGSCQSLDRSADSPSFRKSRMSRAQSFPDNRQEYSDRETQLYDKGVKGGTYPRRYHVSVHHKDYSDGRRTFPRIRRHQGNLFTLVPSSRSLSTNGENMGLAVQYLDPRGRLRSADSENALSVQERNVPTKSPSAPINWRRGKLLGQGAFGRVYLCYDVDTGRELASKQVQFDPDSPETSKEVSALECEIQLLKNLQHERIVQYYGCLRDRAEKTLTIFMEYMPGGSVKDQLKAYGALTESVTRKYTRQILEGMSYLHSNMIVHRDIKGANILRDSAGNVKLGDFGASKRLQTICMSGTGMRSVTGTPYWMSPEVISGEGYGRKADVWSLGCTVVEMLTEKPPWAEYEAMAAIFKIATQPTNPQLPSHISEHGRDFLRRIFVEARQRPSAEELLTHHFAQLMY

[7] = target: Interferon-induced, double-stranded RNA-activated protein kinase (Homo sapiens) (UniProt P19525); assay: Inhibition of PKR Lys2 labeling site in human A-375 cells at 0.05 uM by KiNativ Profiling analysis relative to control; format: cell-based
[8] = target: RAF proto-oncogene serine/threonine-protein kinase (Homo sapiens, UniProt P04049); assay: Inhibition of RAF1 Lys2 labeling site in human A-375 cells at 5 uM by KiNativ Profiling analysis relative to control; format: cell-based
[9] = target: Serine/threonine-protein kinase RIO2 (Homo sapiens) (UniProt Q9BVS4); assay: Inhibition of RIOK2 (unknown origin) at 10 uM by Ambit Kinomescan binding assay
[10] = target: Insulin receptor-related protein (Homo sapiens) (UniProt P14616); assay: Inhibition of INSRR (unknown origin) at 10 uM by Ambit Kinomescan binding assay relative to control
[11] = target: Mitogen-activated protein kinase kinase kinase 4 (Homo sapiens) (UniProt Q9Y6R4); assay: Inhibition of MAP3K4 (unknown origin) at 10 uM by Ambit Kinomescan binding assay
[12] = target: Calcium/calmodulin-dependent protein kinase type II subunit delta (Homo sapiens) (UniProt Q13557); assay: Inhibition of CaMK2d Lys1 labeling site harbouring IPTGQEYAAKIINTK in human Huh-7 cells at 1 uM by KiNativ Profiling analysis relative to control; format: cell-based
[13] = target: Protein kinase C alpha type (Homo sapiens) (UniProt P17252); assay: Inhibition of PKCa Lys2 labeling site in human Huh-7 cell lysate at 1 uM by KiNativ Profiling analysis relative to control; format: subcellular
[14] = target: Microtubule-associated serine/threonine-protein kinase 1 (Homo sapiens) (UniProt Q9Y2H9); assay: Inhibition of MAST1 Lys2 labeling site in human Huh-7 cells at 1 uM by KiNativ Profiling analysis relative to control
[15] = target: Serine/threonine-protein kinase Nek7 (Homo sapiens) (UniProt Q8TDX7); assay: Inhibition of NEK7 Lys2 labeling site harbouring DIKPANVFITATGVVK in human Huh-7 cell lysate at 1 uM by KiNativ Profiling analysis relative to control; format: subcellular
[16] = target: Ribosomal protein S6 kinase alpha-1 (Homo sapiens) (UniProt Q15418); assay: Inhibition of RSK1 domain 1 Lys2 labeling site harbouring DLKPENILLDEEGHIKLTDFGLSK in human Huh-7 cell lysate at 1 uM by KiNativ Profiling analysis relative to control; format: subcellular
[17] = target: Putative phosphatidylinositol 4-kinase alpha-like protein P2 (Homo sapiens) (UniProt A4QPH2); assay: Inhibition of PI4KAP2 ATP labeling site in human Huh-7 cell lysate at 1 uM by KiNativ Profiling analysis relative to control; format: subcellular
[18] = target: Calcium/calmodulin-dependent protein kinase type II subunit alpha (Homo sapiens) (UniProt Q9UQM7); assay: Inhibition of CaMK2a Lys2 labeling site in human Huh-7 cells at 1 uM by KiNativ Profiling analysis relative to control; format: cell-based
[19] = tested on: Epidermal growth factor receptor (Homo sapiens), P00533 [UNDEFINED MUTATION]; assay: Inhibition of EGFR L747/T751del mutant (unknown origin) at 1 uM by Ambit Kinomescan binding assay relative to control

Sequence of Mitogen-activated protein kinase kinase kinase 4 (Homo sapiens) (Q9Y6R4 whole entry): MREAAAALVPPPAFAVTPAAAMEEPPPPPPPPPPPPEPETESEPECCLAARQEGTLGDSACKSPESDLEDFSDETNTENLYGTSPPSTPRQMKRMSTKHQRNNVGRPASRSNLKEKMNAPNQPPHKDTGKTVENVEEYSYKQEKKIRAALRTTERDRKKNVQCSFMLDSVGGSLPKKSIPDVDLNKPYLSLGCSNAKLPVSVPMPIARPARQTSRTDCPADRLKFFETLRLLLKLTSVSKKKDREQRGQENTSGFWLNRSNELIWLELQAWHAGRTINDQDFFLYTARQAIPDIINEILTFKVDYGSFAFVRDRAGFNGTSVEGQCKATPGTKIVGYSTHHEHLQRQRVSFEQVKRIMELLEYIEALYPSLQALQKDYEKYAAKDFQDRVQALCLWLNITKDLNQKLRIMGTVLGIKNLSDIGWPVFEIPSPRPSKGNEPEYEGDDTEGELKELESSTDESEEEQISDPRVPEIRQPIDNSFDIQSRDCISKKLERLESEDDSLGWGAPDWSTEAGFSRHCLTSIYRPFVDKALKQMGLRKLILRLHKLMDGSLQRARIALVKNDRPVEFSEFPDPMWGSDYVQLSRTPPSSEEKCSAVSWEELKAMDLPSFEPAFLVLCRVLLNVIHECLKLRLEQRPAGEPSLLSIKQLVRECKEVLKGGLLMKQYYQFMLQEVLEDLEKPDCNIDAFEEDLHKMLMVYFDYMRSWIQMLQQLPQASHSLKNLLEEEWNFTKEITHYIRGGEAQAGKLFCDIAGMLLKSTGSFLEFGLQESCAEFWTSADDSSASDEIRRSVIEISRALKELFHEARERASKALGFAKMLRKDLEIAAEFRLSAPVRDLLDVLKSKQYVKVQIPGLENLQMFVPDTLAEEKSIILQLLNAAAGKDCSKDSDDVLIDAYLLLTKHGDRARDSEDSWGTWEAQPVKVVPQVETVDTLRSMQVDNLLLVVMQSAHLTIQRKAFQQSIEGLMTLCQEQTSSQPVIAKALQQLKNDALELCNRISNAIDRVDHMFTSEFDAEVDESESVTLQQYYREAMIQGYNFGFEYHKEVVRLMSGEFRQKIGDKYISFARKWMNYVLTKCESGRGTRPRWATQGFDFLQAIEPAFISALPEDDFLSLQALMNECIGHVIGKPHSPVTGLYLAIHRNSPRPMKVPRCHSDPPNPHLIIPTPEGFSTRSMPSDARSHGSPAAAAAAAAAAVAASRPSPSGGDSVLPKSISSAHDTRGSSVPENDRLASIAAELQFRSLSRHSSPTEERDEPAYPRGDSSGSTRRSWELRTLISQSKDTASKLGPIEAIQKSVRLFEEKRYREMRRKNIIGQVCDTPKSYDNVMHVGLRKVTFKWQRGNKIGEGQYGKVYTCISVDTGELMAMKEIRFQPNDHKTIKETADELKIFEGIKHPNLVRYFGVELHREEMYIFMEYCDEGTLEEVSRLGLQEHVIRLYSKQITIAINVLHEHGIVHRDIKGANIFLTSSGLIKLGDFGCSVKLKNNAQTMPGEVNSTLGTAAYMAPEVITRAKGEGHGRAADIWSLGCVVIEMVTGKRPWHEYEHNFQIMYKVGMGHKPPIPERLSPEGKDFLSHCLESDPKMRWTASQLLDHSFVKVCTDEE
Sequence of Insulin receptor-related protein (Homo sapiens) (P14616 27-742 limits assumed): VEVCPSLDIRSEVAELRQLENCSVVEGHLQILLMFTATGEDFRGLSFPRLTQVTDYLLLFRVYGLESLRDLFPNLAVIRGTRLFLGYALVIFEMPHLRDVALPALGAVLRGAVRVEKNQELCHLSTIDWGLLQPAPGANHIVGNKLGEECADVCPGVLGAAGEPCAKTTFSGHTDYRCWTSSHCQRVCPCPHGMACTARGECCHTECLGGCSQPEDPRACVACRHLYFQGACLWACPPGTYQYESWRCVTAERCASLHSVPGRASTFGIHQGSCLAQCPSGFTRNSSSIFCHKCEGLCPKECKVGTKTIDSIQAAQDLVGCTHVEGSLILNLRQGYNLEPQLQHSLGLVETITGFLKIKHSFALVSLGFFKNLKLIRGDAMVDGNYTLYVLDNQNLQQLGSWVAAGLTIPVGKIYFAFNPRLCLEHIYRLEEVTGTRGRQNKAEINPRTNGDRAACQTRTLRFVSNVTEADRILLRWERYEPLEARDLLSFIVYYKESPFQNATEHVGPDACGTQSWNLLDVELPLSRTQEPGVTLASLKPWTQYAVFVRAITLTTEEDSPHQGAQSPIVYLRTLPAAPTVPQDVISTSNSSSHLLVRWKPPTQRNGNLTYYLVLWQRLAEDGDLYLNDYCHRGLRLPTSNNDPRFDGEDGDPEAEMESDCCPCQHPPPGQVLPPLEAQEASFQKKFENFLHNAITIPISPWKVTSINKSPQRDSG
Sequence of Insulin receptor-related protein (Homo sapiens) (P14616 747-1297 limits assumed): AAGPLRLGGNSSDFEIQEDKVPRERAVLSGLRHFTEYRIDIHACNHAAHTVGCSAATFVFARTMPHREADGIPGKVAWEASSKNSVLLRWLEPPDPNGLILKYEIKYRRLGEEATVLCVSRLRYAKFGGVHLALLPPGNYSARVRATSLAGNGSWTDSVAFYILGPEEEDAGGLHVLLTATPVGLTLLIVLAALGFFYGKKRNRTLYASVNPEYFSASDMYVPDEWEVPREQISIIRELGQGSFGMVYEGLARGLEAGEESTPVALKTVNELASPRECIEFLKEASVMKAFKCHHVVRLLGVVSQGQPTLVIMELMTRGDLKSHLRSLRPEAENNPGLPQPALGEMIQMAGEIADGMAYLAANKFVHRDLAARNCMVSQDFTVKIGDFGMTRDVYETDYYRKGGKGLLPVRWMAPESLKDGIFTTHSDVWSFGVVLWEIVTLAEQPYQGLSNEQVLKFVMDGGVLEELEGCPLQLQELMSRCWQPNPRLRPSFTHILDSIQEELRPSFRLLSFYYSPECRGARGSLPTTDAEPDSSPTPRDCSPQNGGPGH
Sequence of Calcium/calmodulin-dependent protein kinase type II subunit delta (Homo sapiens) (Q13557 whole entry): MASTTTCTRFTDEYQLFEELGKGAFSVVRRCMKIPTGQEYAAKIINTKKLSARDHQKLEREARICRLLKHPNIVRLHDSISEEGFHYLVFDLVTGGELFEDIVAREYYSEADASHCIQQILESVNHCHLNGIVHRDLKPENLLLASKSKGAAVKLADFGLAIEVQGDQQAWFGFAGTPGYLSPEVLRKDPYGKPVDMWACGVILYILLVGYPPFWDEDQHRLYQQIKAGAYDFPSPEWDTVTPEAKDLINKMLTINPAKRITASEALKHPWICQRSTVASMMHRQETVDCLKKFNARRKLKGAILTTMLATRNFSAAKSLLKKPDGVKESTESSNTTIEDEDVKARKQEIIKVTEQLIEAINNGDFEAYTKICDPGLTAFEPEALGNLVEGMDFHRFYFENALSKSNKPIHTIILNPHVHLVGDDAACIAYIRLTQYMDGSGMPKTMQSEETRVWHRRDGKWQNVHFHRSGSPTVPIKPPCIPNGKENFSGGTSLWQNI
Sequence of Putative phosphatidylinositol 4-kinase alpha-like protein P2 (Homo sapiens) (A4QPH2 whole entry): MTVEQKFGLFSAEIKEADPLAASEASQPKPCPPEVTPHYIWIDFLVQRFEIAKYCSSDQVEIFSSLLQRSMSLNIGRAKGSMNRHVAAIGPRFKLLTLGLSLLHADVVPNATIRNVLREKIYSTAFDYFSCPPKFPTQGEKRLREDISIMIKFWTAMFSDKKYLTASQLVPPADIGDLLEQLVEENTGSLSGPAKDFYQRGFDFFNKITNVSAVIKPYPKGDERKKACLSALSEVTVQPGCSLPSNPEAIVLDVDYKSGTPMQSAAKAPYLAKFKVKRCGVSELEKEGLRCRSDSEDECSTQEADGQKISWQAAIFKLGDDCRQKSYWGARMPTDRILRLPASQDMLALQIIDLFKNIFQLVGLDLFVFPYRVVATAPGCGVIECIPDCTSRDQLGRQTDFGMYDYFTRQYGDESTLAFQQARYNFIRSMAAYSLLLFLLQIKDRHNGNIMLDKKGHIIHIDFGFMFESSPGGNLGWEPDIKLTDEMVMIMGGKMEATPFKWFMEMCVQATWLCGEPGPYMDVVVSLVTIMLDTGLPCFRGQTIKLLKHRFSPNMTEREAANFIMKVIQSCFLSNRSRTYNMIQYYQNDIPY
Sequence of Serine/threonine-protein kinase Nek7 (Homo sapiens) (Q8TDX7 whole entry, looked up, the tested form may be a part): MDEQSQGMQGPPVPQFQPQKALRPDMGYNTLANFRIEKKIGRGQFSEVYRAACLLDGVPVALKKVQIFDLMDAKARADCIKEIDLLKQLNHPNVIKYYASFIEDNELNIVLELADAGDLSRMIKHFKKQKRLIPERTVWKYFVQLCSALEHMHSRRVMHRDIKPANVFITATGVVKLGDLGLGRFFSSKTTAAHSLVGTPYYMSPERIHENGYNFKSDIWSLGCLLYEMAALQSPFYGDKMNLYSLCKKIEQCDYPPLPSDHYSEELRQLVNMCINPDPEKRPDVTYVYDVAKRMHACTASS

CCN1CCN(Cc2ccc(NC(=O)c3ccc(C)c(Oc4ccnc5[nH]ccc45)c3)cc2C(F)(F)F)CC1
inhibition [1]: inactive
inhibition [2]: -6.4%
residual activity [3]: 8.2%
inhibition [4]: 16.2%
inhibition [5]: -5.6%
inhibition [6]: 2.8%
inhibition [7]: -8.1%
inhibition [8]: 83.8%
inhibition [9]: inactive
inhibition [10]: 23%
inhibition [11]: inactive

CNc1cc(Oc2cc(C(=O)Nc3cc(N4CCN(C)CC4)cc(C(F)(F)F)c3)ccc2C)ncn1
inhibition [12]: 9.1%
inhibition [13]: -1.2%
inhibition [14]: 53.8%
inhibition [15]: -5%
inhibition [16]: 3.1%
inhibition [17]: 2%
inhibition [18]: 20.3%

CCN1CCN(Cc2ccc(NC(=O)c3ccc(C)c(/C=C/c4cnc5[nH]ccc5c4OC)c3)cc2C(F)(F)F)CC1
inhibition [19]: 1.6%
